Our source for the Kd values is article PMC6796385, “Characterizing potential repelling volatiles for “push-pull” strategy against stem borer: a case study in Chilo auricilius” (BMC Genomics, 2019).

The target in this assay is CSP8 (chemosensory protein 8). In words: direct fluorescence titration of purified CSP8 with the fluorescent probe, Scatchard plot. The format is binding, Chilo auricilius.

Broadly, the Kd is the concentration at which binding is half-saturated. High values mean lower affinity, low ones higher affinity. Regarding `c1ccc(Nc2cccc3ccccc23)cc1` [1-NPN, N-phenyl-1-naphthylamine], the Kd was determined as 4 ± 0.13 µM.
